Molecular target: T1, M1 family aminopeptidase (Plasmodium falciparum (isolate FcB1 / Columbia), UniProt O96935)
T1 sequence (O96935 whole entry): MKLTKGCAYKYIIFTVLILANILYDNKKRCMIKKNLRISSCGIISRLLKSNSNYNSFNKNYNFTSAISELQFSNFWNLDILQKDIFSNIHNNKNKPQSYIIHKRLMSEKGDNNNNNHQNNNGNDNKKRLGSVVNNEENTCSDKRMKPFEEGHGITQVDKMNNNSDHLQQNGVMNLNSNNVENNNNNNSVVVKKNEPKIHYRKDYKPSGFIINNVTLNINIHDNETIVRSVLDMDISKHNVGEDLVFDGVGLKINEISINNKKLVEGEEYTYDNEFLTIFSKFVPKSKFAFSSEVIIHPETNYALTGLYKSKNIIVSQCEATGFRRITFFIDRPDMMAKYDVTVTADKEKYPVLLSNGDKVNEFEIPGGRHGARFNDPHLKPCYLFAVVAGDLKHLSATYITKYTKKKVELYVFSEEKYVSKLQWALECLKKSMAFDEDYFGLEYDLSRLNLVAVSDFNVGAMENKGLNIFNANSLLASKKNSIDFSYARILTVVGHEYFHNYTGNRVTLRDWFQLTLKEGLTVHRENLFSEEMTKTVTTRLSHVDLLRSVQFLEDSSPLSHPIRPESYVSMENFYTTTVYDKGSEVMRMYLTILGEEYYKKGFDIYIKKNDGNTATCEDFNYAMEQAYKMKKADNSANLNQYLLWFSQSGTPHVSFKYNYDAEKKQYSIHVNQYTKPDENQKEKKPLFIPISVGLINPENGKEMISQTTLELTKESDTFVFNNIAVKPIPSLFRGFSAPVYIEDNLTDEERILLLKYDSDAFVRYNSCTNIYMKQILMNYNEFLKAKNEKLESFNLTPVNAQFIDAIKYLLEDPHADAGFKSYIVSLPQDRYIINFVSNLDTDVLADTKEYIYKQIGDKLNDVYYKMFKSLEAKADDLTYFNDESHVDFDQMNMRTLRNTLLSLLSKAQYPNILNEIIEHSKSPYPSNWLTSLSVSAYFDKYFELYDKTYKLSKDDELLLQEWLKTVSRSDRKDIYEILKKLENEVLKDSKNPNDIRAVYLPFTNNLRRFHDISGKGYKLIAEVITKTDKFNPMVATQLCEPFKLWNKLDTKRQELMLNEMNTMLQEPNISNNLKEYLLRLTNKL
Test: P. falciparum M1AAP inhibitors, biochemical, fluorogenic H-Leu-NHMec substrate, 1536-well (AID 1445)

| IC50 [µM] | Compound |
| --- | --- |
| 78.9 | N#CC(C(=O)CSc1nnc(Cc2cccs2)n1C1CCCCC1)c1nc2ccccc2[nH]1 (stereo unspecified) [MLS000098387] |
| 71.9 | Cc1ccc(O)c(NC=C2C(=O)c3ccccc3C2=O)c1 [MLS000104939] |
| 62.1 | Cc1c(N2C(=O)C(=O)C(C(=O)c3ccc(Cl)cc3)C2c2ccccc2)c(=O)n(-c2ccccc2)n1C (stereo unspecified) [MLS000331609] |
| 12.8 | CC(NNC(=O)c1ccccc1O)=C1C(=O)c2ccccc2C1=O [MLS000523164] |
| 11 | COC1=CC(/C=C(\C#N)c2nc3ccccc3s2)C=C([N+](=O)[O-])C1=O (stereo unspecified) [MLS000682120] |
| 54.1 | O=C(O)Cc1sc(N[N-][CH+]c2ccc(-c3ccc(Cl)c([N+](=O)[O-])c3)o2)nc1O [MLS000689975] |
| 103 | CCOC1=CC(/C=N/NC(=O)c2cccs2)C=C([N+](=O)[O-])C1=O (stereo unspecified) [MLS000698505] |
| 36.3 | CCOC(=O)C1C(=O)C(=Cc2ccc(OCC(=O)O)c(OCC)c2)SC1=Nc1ccc(OC)cc1 (stereo unspecified) [MLS000704394] |
| 38.1 | Cc1c(N2C(=O)C(=O)C(C(=O)c3ccc(Br)cc3)C2c2cccnc2)c(=O)n(-c2ccccc2)n1C (stereo unspecified) [MLS000724383] |
| 70.2 | CCN1C(=O)/C(=N\NC(=O)c2cccs2)c2ccccc21 [MLS000760154] |
| 38.9 | O=C(O)COc1ccccc1CN=Nc1ccc(S(=O)(=O)Nc2ccc(Cl)cc2)cc1[N+](=O)[O-] [MLS000774437] |
| 47 | COC(=O)c1ccc(COc2ccccc2CN=Nc2cccc(C(=O)O)c2)cc1 [MLS000775447] |
| 30.3 | CCOC(=O)C1C(CC)=Nc2ccccc2N=C1NS(=O)(=O)c1cc(Br)ccc1Br (stereo unspecified) [MLS000775637] |
| 27.3 | O=C(O)c1cccc(-c2ccc(CN=Nc3ccc([N+](=O)[O-])cc3)o2)c1 [MLS000777078] |
| 3.05 | CC1=CC([N+](=O)[O-])=CC(/C=N/NC(=O)C2COc3ccccc3O2)C1=O (stereo unspecified) [N'-[(E)-(5-methyl-3-nitro-6-oxocyclohexa-2,4-dien-1-ylidene)methyl]-2,3-dihydro-1,4-benzodioxine-3-carbohydrazide] |
| 31.4 | O=C1C([N+](=O)[O-])=CC=CC1/C=N/NC(=O)C1COc2ccccc2O1 (stereo unspecified) [N'-[(E)-(5-nitro-6-oxo-1-cyclohexa-2,4-dienylidene)methyl]-2,3-dihydro-1,4-benzodioxin-3-carbohydrazide] |
| 12 | CC(NNC(=O)c1cc2ccccc2cc1O)=C1C(=O)c2ccccc2C1=O [N-[1-[1,3-bis(oxidanylidene)inden-2-yl]ethylideneamino]-3-oxidanyl-naphthalene-2-carboxamide] |
| 12.2 | COC1=CC(C=NNC(=O)[C@H](Cc2c[nH]c3ccccc23)NC(=O)OCC(C)C)C=C([N+](=O)[O-])C1=O (stereo partly drawn) [N-[(2S)-3-(1H-indol-3-yl)-1-[[(E)-(3-methoxy-5-nitro-4-oxo-1-cyclohexa-2,5-dienylidene)methyl]hydrazo]-1-oxopropan-2-yl]carbamic acid 2-methylpropyl ester] |

| IC50 [µM] | Compound |
| --- | --- |
| 66.5 | CCCCCCC(=O)N(O)c1cc(O)n(-c2ccccc2)c1O [SMR000043985] |
| 52.2 | COc1ccccc1-c1nnc(SCC(=O)C(C#N)c2nc3ccccc3[nH]2)n1C1CCCCC1 (stereo unspecified) [SMR000067321] |
| 44.6 | COc1cc(Br)c(C2c3c(-c4cccnc4)n[nH]c3OC(=N)C2C#N)cc1OC (stereo unspecified) [SMR000114618] |
| 47 | Cc1cc(=O)[nH]c(N=NCc2c(O)n(-c3ccccc3)c(=O)c3ccccc23)n1 [SMR000221270] |
| 52.2 | C=c1c(C#N)c2[nH]c(N)c(C#N)c(C)c-2c1=Cc1ccc(-c2ccccc2C(=O)O)o1 [SMR000277284] |
| 13.3 | O=C(Cn1cnc([N+](=O)[O-])n1)N/N=C/C1C=C(Cl)C=CC1=O (stereo unspecified) [SMR000312480] |
| 109 | O=C(O)c1cccc(NC(=S)NN=Cc2ccccc2OCc2cccc(Br)c2)c1 [SMR000312741] |
| 2.41 | C=c1[nH]n(-c2ccc(Cl)c(C(=O)O)c2)c(=O)c1=Cc1ccc(-c2ccc(C(=O)O)cc2)o1 [SMR000312901] |
| 54.6 | C#CCOCCOCCOCCNc1nc(N2CCN(C(=O)[C@H](Cc3cc4ccccc4[nH]3)n3cc([C@@H](N)C(C)CC)nn3)CC2)nc(N2CCN(C(=O)[C@H](Cc3cc4ccccc4[nH]3)n3cc([C@@H](N)CC(C)C)nn3)CC2)n1 (stereo partly specified) [SMR000391064] |
| 72 | C#CCOCCOCCOCCNc1nc(N2CCN(C(=O)C(Cc3cc4ccccc4[nH]3)n3cc(C(N)C(C)CC)nn3)CC2)nc(N2CCN(C(=O)C(Cc3cc4ccccc4[nH]3)n3cc(C(N)C(C)CC)nn3)CC2)n1 (stereo unspecified) [SMR000391068] |
| 52.3 | Cc1cc(C(=O)NN=CC2C=C(Cl)C=C([N+](=O)[O-])C2=O)[nH]n1 (stereo unspecified) [SMR000414694] |
| 48.5 | Cc1ccc2c(c1C)Nc1c(c(=O)c1=O)N2 [SMR000459860] |
| 63.5 | C/C(Cl)=C\CN1C(=O)C(=NNC(N)=S)c2ccccc21 [[(Z)-[1-[(E)-3-chlorobut-2-enyl]-2-oxoindol-3-ylidene]amino]thiourea] |
| 4.75 | COC1=CC(C=NNC(=O)C(Cc2c[nH]c3ccccc23)NC(=O)OCc2ccccc2)C=C([N+](=O)[O-])C1=O (stereo unspecified) [benzyl N-[3-(1H-indol-3-yl)-1-[2-[(E)-(3-methoxy-5-nitro-4-oxocyclohexa-2,5-dien-1-ylidene)methyl]hydrazinyl]-1-oxopropan-2-yl]carbamate] |
| 36.7 | COC(=O)CN1C(=O)C2(c3ccccc31)c1c(-c3cccs3)n[nH]c1OC(=N)C2C#N (stereo unspecified) [methyl (6'-amino-5'-cyano-2-oxo-3'-thien-2-yl-1'H-spiro[indole-3,4'-pyrano[2,3-c]pyrazol]-1(2H)-yl)acetate] |
| 25.8 | Cc1nnc(=O)[nH]c1N=NCc1cccs1 [thiophene-2-carbaldehyde (6-methyl-3-oxo-2,3-dihydro-1,2,4-triazin-5-yl)hydrazone] |
| 47.8 | CCOc1cc(CN=Nc2nc(O)c(CC(=O)O)s2)ccc1OS(=O)(=O)c1ccc(C)cc1 [{2-[(3-ethoxy-4-{[(4-methylphenyl)sulfonyl]oxy}benzylidene)hydrazono]-4-oxo-1,3-thiazolidin-5-yl}acetic acid] |

| Compound | IC50 [µM] |
| --- | --- |
| COc1ccc(-c2c/c(=N\CCCCCC(=O)O)c3cc(C)ccc3o2)cc1 [[2-(4-methoxyphenyl)-6-methyl-chromen-4-ylidene]-(6-oxidanyl-6-oxidanylidene-hexyl)azanium;perchlorate] | 7.22 |
